From patent US20200023031A1, “COMPOSITION FOR ANTI-PANCREATIC CANCER AND ANTI-PANCREATIC ADJUVANT COMPRISING ALLOFERON” (AT-Pharma Co., Ltd., priority 2018, published 2020)

Key:
[1] = system: AsPC-1 pancreatic ductal adenocarcinoma cell line; assay: Annexin V apoptosis assay, AsPC-1; type: cell-based
Method: (§1) AsPC-1 (FIG. 4(a)) and Panc-1 (FIG. 4(b)), two pancreatic ductal adenocarcinoma cell line, were cultured for week in the presence or absence of […] of alloferon, and then 5×10^5 cells were cultured with 250 nM of gemcitabine for 36 hrs. To investigate whether alloferon increases the sensitivity of these cell lines against gemcitabine, the degree of cell death was examined by an Annexin V-7AAD assay. Cells were collected and washed three times with cold phosphate-buffered saline (PBS) and then resuspended in 1× Annexin V binding buffer at a concentration of 1×10^6 cells/ml (BD Biosciences). Transfer 100 μl of the solution (1×10^5 cells) to a 5 ml culture tube. Add 5 μl of FITC-conjugated Annexin V and incubated for 15 min at room temperature in the dark. Add 400 μl of 1× Annexin V binding buffer to each tube. After 1 μl of propidium iodide (PI) was added just prior to analyze by flow cytometry. Apoptotic cells were analyzed with LSRII flow cytometer (BD Biosciences) with excitation at 488 nm and emission at 525 nm.

[2] = system: Panc-1 pancreatic ductal adenocarcinoma cell line; assay: Annexin V apoptosis assay, Panc-1; type: cell-based
Method: as §1

AsPC-1 cells [3] = assay: Mitochondrial membrane potential assay, DiOC6(3) staining; type: cell-based; settings: 0.5 mg/ml alloferon for week, 250 nM gemcitabine 36 hours
Method: The effect of adjuvant treatment of alloferon and gemcitabine on mitochondrial function was also studied. AsPC-1 cells were cultured for week in the presence or absence of 0.5 mg/ml of alloferon. Then 5×10^5 cells were cultured with 250 nM of gemcitabine for 36 hours. The synergistic effect of alloferon with gemcitabine on the decrease of mitochondrial membrane potential, a general phenomenon associated with cell death by chemotherapeutic drugs, was investigated by staining with DiOC6(3), a green-fluorescent, lipophilic dye (ThermoFisher Scientific). Cells were collected and washed three times with PBS. Then 1×10^6 cells were resuspended in 1 ml freshly prepared 4% paraformaldehyde diluted from stock using PBS for 10 minutes at room temperature and then washed with 1 ml pre-warmed (37° C.) PBS three times. The DiOC6 stock solution was diluted into PBS to make 0.1 μM working solution. The cells were suspended at a density of 1×10^6 cells/ml in dye working solution and protected from light. The cells were incubated at 37° C. for 15 minutes. The cell suspensions were centrifuged at 130×g for 5 minutes. The supernatant was removed and the cells were gently resuspended in 1 ml pre-warmed PBS. The cells were analyzed with LSRII flow cytometer (BD Biosciences) with excitation at 488 nm and emission at 525 nm.

AsPC-1 cells [4] = assay: AsPC-1 xenograft model in Balb/C (nu/nu) mice; type: in vivo
Method: (§2) The anti-tumor effect of concomitant alloferon and gemcitabine treatment was also assessed by using xenograft animal model.
(§3) Tumor burdens from each experimental animals were excised and compared its volumes (FIG. 8).

Panc-1 cells = assay: Panc-1 xenograft model in Balb/C (nu/nu) mice; type: in vivo
Method: as §2, §3

[5] = gemcitabine 250 nM for 36 hrs, alloferon 0.5 μg/ml for a week
[6] = subcutaneous, female Balb/C (nu/nu), calipers every 3-4 days

Nc1ccn([C@@H]2O[C@H](CO)[C@@H](O)C2(F)F)c(=O)n1 [gemcitabine]
cytotoxic effects, ASPC-1 ([1]; gemcitabine 250 nM): do not have cytotoxic effects | apoptosis, AsPC-1 [1, 5]: do not induce apoptosis | cytotoxic effects, PANC-1 ([2]; gemcitabine 250 nM): do not have cytotoxic effects | apoptosis, Panc-1 [2, 5]: do not induce apoptosis | mitochondrial membrane potential / mitochondrial dysfunction (AsPC-1 cells [3]): does not induce mitochondrial dysfunction | tumor growth (tumor volume), AsPC-1 xenograft (AsPC-1 cells [4]; [6]): does not effectively suppress growth | excised tumor burden volume, AsPC-1 xenograft (AsPC-1 cells [4]; tumor burdens excised, FIG. 8): does not effectively suppress growth | tumor growth (tumor volume), Panc-1 xenograft (Panc-1 cells; [6]): does not effectively suppress growth | excised tumor burden volume, Panc-1 xenograft (Panc-1 cells; tumor burdens excised, FIG. 8): does not effectively suppress growth
